Measured values published in patent publication US6864251B2, “Treatment of LTB4-mediated inflammatory disorders with optically-pure (R)-2,3-benzodiazepines” (Vela Pharmaceuticals, Inc., priority 2002, dated 2005).

Columns and labels:
[1] = target: LTB4 receptor (Cavia porcellus, UniProt H0VYV8); test: LTB4 binding assay, displacement of [3H]LTB4, guinea pig spleen membrane
Method: Reactions were carried out in a phosphate buffer (pH 7.4) containing NaCl, MgCl2, EDTA, and bacitracin. The reaction volume of 150 μL containing 1.0 mg/mL of the Guinea pig spleen membrane preparation and 1 nM [^3H]LTB4, with or without a competitor, was incubated at 0-4° C. for 2 hours. Competitors included 2,3-benzodiazepines, and LTB4 as a control. The reaction was terminated by rapid vacuum filtration onto glass fiber filters. The filter was washed with cold buffer, dried and placed in a scintillation vial. Radioactivity trapped onto the filters was determined and compared to control values in order to ascertain any interactions of the test compound with the LTB4 binding site.

[2] = test system: DSS-induced colitis; test: Dextran sulfate sodium induced colitis: mouse model of inflammatory bowel disease; format: in vivo, Swiss Webster mice; settings: for Mean colon length CM ± SEM / Mean weight ± SEM, Day 0 / % weight change ± SEM, Day 8 / Mean weight ± SEM, Day 8 / % weight change ± SEM, Day 9 / Mean weight ± SEM, Day 9 / % weight change ± SEM, Day 10 / Mean weight ± SEM, Day 10 / Mean DAI* ± SEM / inhibition at 16 mg/kg / inhibition at 32 mg/kg / inhibition at 64 mg/kg / % of normal length: DSS 5%; for Mean DAI ± SEM: DSS 5% in tap water; for Mean DAI* ± SEM: DAI without weight loss parameter; for inhibition at 16 mg/kg / inhibition at 32 mg/kg / inhibition at 64 mg/kg: Mus musculus, read-out: Colon shortening inhib. %; for % of normal length: colon length
Method: In this model of colitis, an acute inflammation of the colon was produced by administration of dextran sulfate sodium (DSS) as a 5% solution in tap water. This colitis was characterized by histological events and an influx of neutrophils, macrophages and mediators of inflammation similar to those observed with human inflammatory bowel diseases. […] The following study was conducted in accordance with protocols of Okayasu et al., Gastroenterology, 98:694-702, 1990.
One hundred ten test animals (female, 6 week old Swiss Webster mice, 18-30 g) were divided into ten groups, selected to eliminate any statistical differences in mean group weight.
Each animal was dosed daily (IP) with either a test substance or vehicle, starting on Day 0. Beginning on Day 1, acute colon inflammation was induced by the administration ad libitum in drinking water of dextran sulfate sodium (DSS) as a 5% solution in tap water (10 mL/mouse/day for 5-6 days), with no other fluid source for animals in the DSS arm of the study. Filtered tap water was available ad libitum except for animals receiving 5% DSS as the sole source of fluid. After four days, signs of acute disease occured with the loss of weight, diarrhea and bloody stools. Histological changes included initial shortening of the crypts, then areas of separation of the crypts and the muscularis mucosae in the absence of destructive inflammatory filtrate. After five days, pathological changes became confluent with the appearance of erosions and early hyperplastic epithelium. Inflammation scores were high with neutrophils, lymphocytes, and plasma cells in the lamina propria but sparing the epithelium.
Test compounds were administered intraperitoneally (IP). Test compounds given during this period were evaluated for prophylactic activity and test compounds given after the disease state was established were evaluated for therapeutic activity.
Test animals were weighed daily from Day 0 to Day 8, or until completion of the study. The total duration of the study with DSS arm of the study was varied depending on the time progress of colitis. The condition of the test animals and consistency of stools was noted.
At the conclusion of the study, test animals were euthanized (CO2), a midline incision was made and a stool sample was obtained. The sample was placed on a slide and tested for occult blood (Quic-Cult™, Laboratory Diagnostics Co., Morganville, N.J.). Occult blood was determined by placing two drops of the reagent onto the sample and observing any color change. Occult blood presence was graded using a scoring protocol assigning a score of 0 for no color; 1 for a very light blue color (+/−) forming in >30 seconds; 2 for a blue color developing in 30 seconds or more (+); 3 for a change in color occurring in less than 30 seconds (++); and 4 for gross blood observable on the slide. The colon was gently stretched and the length from the colon-cecal junction to the end of the distal rectum was measured to the nearest 0.1 cm.
The scores for each test animal were added and then divided by three to give a DAI score for each animal.

Sequence of LTB4 receptor (H0VYV8 1-348): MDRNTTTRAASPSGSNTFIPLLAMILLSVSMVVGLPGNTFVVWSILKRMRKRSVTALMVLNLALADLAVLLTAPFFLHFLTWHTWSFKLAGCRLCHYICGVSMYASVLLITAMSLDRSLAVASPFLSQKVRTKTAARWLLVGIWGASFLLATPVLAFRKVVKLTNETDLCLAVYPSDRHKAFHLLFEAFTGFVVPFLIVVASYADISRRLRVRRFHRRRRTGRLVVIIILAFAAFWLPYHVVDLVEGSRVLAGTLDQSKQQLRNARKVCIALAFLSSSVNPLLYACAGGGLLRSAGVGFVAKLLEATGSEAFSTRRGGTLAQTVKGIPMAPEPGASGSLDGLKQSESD

Row | Compound | Ki [1] | Mean colon length CM ± SEM ([2]; 16 mg/kg IP daily) | Mean DAI ± SEM ([2]; 16 mg/kg IP daily) | Mean weight ± SEM, Day 0 ([2]; 16 mg/kg IP daily) | % weight change ± SEM, Day 8 ([2]; 16 mg/kg IP daily) | Mean weight ± SEM, Day 8 ([2]; 16 mg/kg IP daily) | % weight change ± SEM, Day 9 ([2]; 16 mg/kg IP daily) | Mean weight ± SEM, Day 9 ([2]; 16 mg/kg IP daily) | % weight change ± SEM, Day 10 ([2]; 16 mg/kg IP daily) | Mean weight ± SEM, Day 10 ([2]; 16 mg/kg IP daily) | Mean colon length CM ± SEM ([2]; 32 mg/kg IP daily) | Mean DAI ± SEM ([2]; 32 mg/kg IP daily) | Mean weight ± SEM, Day 0 ([2]; 32 mg/kg IP daily) | % weight change ± SEM, Day 8 ([2]; 32 mg/kg IP daily) | Mean weight ± SEM, Day 8 ([2]; 32 mg/kg IP daily) | % weight change ± SEM, Day 9 ([2]; 32 mg/kg IP daily) | Mean weight ± SEM, Day 9 ([2]; 32 mg/kg IP daily) | % weight change ± SEM, Day 10 ([2]; 32 mg/kg IP daily) | Mean weight ± SEM, Day 10 ([2]; 32 mg/kg IP daily) | Mean colon length CM ± SEM ([2]; 64 mg/kg IP daily) | other results
1 | CC[C@H]1C(C)=NN=C(c2ccc(OC)c(OC)c2)c2cc(OC)c(OC)cc21 [(R)-tofisopam, (R)-1-(3,4-dimethoxyphenyl)-4-methyl-5-ethyl-7,8-dimethoxy-5H-2,3-benzodiazepine] | 0.444 µM | 9.0 ± 0.28 CM | 2.22 ± 0.34 | 26.1 ± 0.5 g | 0.0 ± 1.4% | 26.1 ± 0.6 g | 3.3 ± 1.8% | 25.2 ± 0.6 g | 5.4 ± 3.4% | 24.7 ± 1.0 g | 8.9 ± 0.41 CM | 2.33 ± 0.28 | 25.0 ± 0.4 g | 0.8 ± 1.6% | 26.2 ± 0.4 g | 1.9 ± 2.1% | 25.5 ± 0.6 g | 4.4 ± 2.1% | 24.6 ± 0.6 g | 9.8 ± 0.35 CM | Protection from the LTB4-mediated inflammatory responses to DSS-induced colitis ([2]; 64 mg per kg, based on colon length and DAI): significant protection; Mean DAI ± SEM ([2]; 64 mg/kg IP daily): 1.73 ± 0.27^1; Mean weight ± SEM, Day 0 ([2]; 64 mg/kg IP daily): 26.2 ± 0.5 g; % weight change ± SEM, Day 8 ([2]; 64 mg/kg IP daily): 0.1 ± 1.9%; Mean weight ± SEM, Day 8 ([2]; 64 mg/kg IP daily): 26.2 ± 0.5 g; % weight change ± SEM, Day 9 ([2]; 64 mg/kg IP daily): 2.9 ± 1.9%; Mean weight ± SEM, Day 9 ([2]; 64 mg/kg IP daily): 25.4 ± 0.5 g; % weight change ± SEM, Day 10 ([2]; 64 mg/kg IP daily): 2.8 ± 2.5%; Mean weight ± SEM, Day 10 ([2]; 64 mg/kg IP daily): 25.4 ± 0.5 g; Mean DAI* ± SEM ([2]; 16 mg/kg IP daily): 2.61 ± 0.37; Mean DAI* ± SEM ([2]; 32 mg/kg IP daily): 2.75 ± 0.26; Mean DAI* ± SEM ([2]; 64 mg/kg IP daily): 2.20 ± 0.26^1; inhibition at 16 mg/kg ([2]; 16 mg/kg IP daily): 24%; inhibition at 32 mg/kg ([2]; 32 mg/kg IP daily): 22%; inhibition at 64 mg/kg ([2]; 64 mg/kg IP daily): 41%; % of normal length ([2]; 16 mg/kg IP daily): 72.4%; % of normal length ([2]; 32 mg/kg IP daily): 71.3%; % of normal length ([2]; 64 mg/kg IP daily): 78.5%
2 | CC[C@@H]1C(C)=NN=C(c2ccc(OC)c(OC)c2)c2cc(OC)c(OC)cc21 [(S)-tofisopam, (S)-1-(3,4-dimethoxyphenyl)-4-methyl-5-ethyl-7,8-dimethoxy-5H-2,3-benzodiazepine] | 76 µM | 8.4 ± 0.19 CM | 2.37 ± 0.24 | 26.0 ± 0.4 g | 0.0 ± 1.5% | 26.0 ± 0.5 g | 1.5 ± 1.5% | 25.6 ± 0.5 g | 5.4 ± 1.6% | 24.6 ± 0.6 g | 8.1 ± 0.19 CM | 3.07 ± 0.25 | 25.9 ± 0.4 g | 3.0 ± 0.6% | 25.1 ± 0.6 g | 4.9 ± 2.4% | 24.6 ± 0.6 g | 10.4 ± 3.2% | 23.2 ± 0.9 g | 8.2 ± 0.20 CM | Mean DAI ± SEM ([2]; 64 mg/kg IP daily): 2.78 ± 0.27; Mean weight ± SEM, Day 0 ([2]; 64 mg/kg IP daily): 25.9 ± 0.4 g; % weight change ± SEM, Day 8 ([2]; 64 mg/kg IP daily): 1.2 ± 1.5%; Mean weight ± SEM, Day 8 ([2]; 64 mg/kg IP daily): 25.8 ± 0.6 g; % weight change ± SEM, Day 9 ([2]; 64 mg/kg IP daily): 6.9 ± 1.8%; Mean weight ± SEM, Day 9 ([2]; 64 mg/kg IP daily): 24.1 ± 0.5 g; % weight change ± SEM, Day 10 ([2]; 64 mg/kg IP daily): 10.4 ± 1.7%; Mean weight ± SEM, Day 10 ([2]; 64 mg/kg IP daily): 23.2 ± 0.6 g; Mean DAI* ± SEM ([2]; 16 mg/kg IP daily): 2.85 ± 0.18; Mean DAI* ± SEM ([2]; 32 mg/kg IP daily): 3.60 ± 0.30; Mean DAI* ± SEM ([2]; 64 mg/kg IP daily): 2.94 ± 0.24; inhibition at 16 mg/kg ([2]; 16 mg/kg IP daily): 11%; inhibition at 32 mg/kg ([2]; 32 mg/kg IP daily): 4%; inhibition at 64 mg/kg ([2]; 64 mg/kg IP daily): 7%; % of normal length ([2]; 16 mg/kg IP daily): 67.3%; % of normal length ([2]; 32 mg/kg IP daily): 64.9%; % of normal length ([2]; 64 mg/kg IP daily): 65.4%
3 | CCC1C(C)=NN=C(c2ccc(OC)c(OC)c2)c2cc(OC)c(OC)cc21 (racemic) [Racemic tofisopam, Racemic-1-(3,4-dimethoxyphenyl)-4-methyl-5-ethyl-7,8-dimethoxy-5H-2,3-benzodiazepine] | 4.52 µM | 8.2 ± 0.32 CM | 2.59 ± 0.27 | 25.9 ± 0.4 g | 3.1 ± 1.5% | 25.1 ± 0.6 g | 7.4 ± 2.5% | 24.0 ± 0.8 g | 13.3 ± 3.1% | 22.5 ± 1.0 g | 8.3 ± 0.11 CM | 2.37 ± 0.33 | 26.1 ± 0.4 g | 1.8 ± 1.5% | 25.6 ± 0.4 g | 5.3 ± 2.0% | 24.7 ± 0.6 g | 8.0 ± 2.4% | 24.0 ± 0.7 g | 8.2 ± 0.18 CM | Mean DAI ± SEM ([2]; 64 mg/kg IP daily): 2.87 ± 0.31; Mean weight ± SEM, Day 0 ([2]; 64 mg/kg IP daily): 25.8 ± 0.3 g; % weight change ± SEM, Day 8 ([2]; 64 mg/kg IP daily): 1.2 ± 2.1%; Mean weight ± SEM, Day 8 ([2]; 64 mg/kg IP daily): 25.5 ± 0.7 g; % weight change ± SEM, Day 9 ([2]; 64 mg/kg IP daily): 5.1 ± 2.5%; Mean weight ± SEM, Day 9 ([2]; 64 mg/kg IP daily): 24.5 ± 0.8 g; % weight change ± SEM, Day 10 ([2]; 64 mg/kg IP daily): 8.9 ± 3.1%; Mean weight ± SEM, Day 10 ([2]; 64 mg/kg IP daily): 23.5 ± 0.9 g; Mean DAI* ± SEM ([2]; 16 mg/kg IP daily): 2.61 ± 0.30; Mean DAI* ± SEM ([2]; 32 mg/kg IP daily): 2.65 ± 0.28; Mean DAI* ± SEM ([2]; 64 mg/kg IP daily): 3.25 ± 0.26; inhibition at 16 mg/kg ([2]; 16 mg/kg IP daily): 7%; inhibition at 32 mg/kg ([2]; 32 mg/kg IP daily): 9%; inhibition at 64 mg/kg ([2]; 64 mg/kg IP daily): 7%; % of normal length ([2]; 16 mg/kg IP daily): 65.4%; % of normal length ([2]; 32 mg/kg IP daily): 66.7%; % of normal length ([2]; 64 mg/kg IP daily): 65.5%
